SMILES strings stand for the structures. pIC50: −log10 of the molar value. Counter-ions that a name gives are not always drawn. Marks after values point to notes of the source that are not given here.

1 compound from patent US6342504B1, “Aromatic heterocyclic derivatives as enzyme inhibitors” (priority 1994, dated 2002) can be followed below.

One assay addresses T1, human aPC (Homo sapiens, UniProt P04070).
T1 construct: purchased Hematologic Technologies, Inc
Nature of the assay: biochemical. The following applies: 30 minute incubation; 1.0 nM enzyme; read-out: IC50 aPC (Table 2). On the procedure:
(§1) The buffer used for all assays was HBSA (10 mM HEPES, pH 7.5, 150 mM sodium chloride, 0.1% bovine serum albumin).
Following a 30 minute incubation at ambient temperature, 50 microliters of the substrate at the concentrations specified below were added to the wells, yielding a final total volume of 200 microliters.
Activated Protein C (aPC) Assay
aPC catalytic activity was determined using the chromogenic substrate, Pefachrome PC (delta-carbobenzloxy-D-lysine-L-prolyl-L-arginine-p-nitroaniline dihydrochloride), obtained from Pentapharm Ltd.). […] Purified human aPC was obtained from Hematologic Technologies, Inc. The enzyme was diluted into HBSA prior to assay in which the final concentration was 1.0 nM.

For a further assay, the target named is human plasmin (Homo sapiens, UniProt P00747). Nature of the assay: biochemical. The following applies: 30 minute incubation; read-out: IC50 Plasmin (Table 2). How it is done: (§2) The ability of compounds of the present invention to act as a selective inhibitor of thrombin catalytic activity was assessed by determining the concentration of compound which inhibited the activity of this enzyme by 50%, (IC50), and comparing this value to that determined for all or some of the following related serine proteases: recombinant tissue plasminogen activator (rt-PA), plasmin, activated protein C, chymotrypsin, factor Xa and trypsin.
as §1
(§3) The assay for IC50 determinations was conducted by combining in appropriate wells of a Corning microtiter plate, 50 microliters of HBSA, 50 microliters of the test compound at a specified concentration (covering a broad concentration range) diluted in HBSA (or HBSA alone for VO (uninhibited velocity) measurement), and 50 microliters of the enzyme diluted in HBSA. Following a 30 minute incubation at ambient temperature, 50 microliters of the substrate at the concentrations specified below were added to the wells, yielding a final total volume of 200 microliters. The initial velocity of chromogenic substrate hydrolysis was measured by the change in absorbance at 405 nm using a Thermo Max® Kinetic Microplate Reader over a 5 minute period in which less than 5% of the added substrate was utilized. The concentration of added inhibitor which caused a 50% decrease in the initial rate of hydrolysis was defined as the IC50 value.
Plasmin catalytic activity was determined using the chromogenic substrate, S-2366 [L-pyroglutomyl-L-prolyl-L-arginine-p-nitroaniline hydrochloride], which was obtained from Pharmacia-Upjohn. The substrate was made up in deionized water followed by dilution in HBSA prior to the assay in which the final concentration was 300 micromolar (about 2.5-times Km). Purified human plasmin was obtained from Enzyme Research Laboratories, Inc. The enzyme was diluted into HBSA prior to assay in which the final concentration was […].

The subject of assay [1] is FeCl3-induced occlusive thrombus in rat carotid artery. Nature of the assay: Rat model of FeCl3-induced platelet-dependent arterial thrombosis. The format is in vivo. The following applies: for Incidence of Occlusion: n 6. An excerpt: Rat Model of FeCl3-induced Platelet-dependent Arterial Thrombosis
Kurz, K. D., Main, B. W., and Sandusky, G. E., Thromb. […] In this model a platelet-rich, occlusive thrombus is formed in a segment of the rat carotid artery treated locally with a fresh solution of FeCl3 absorbed to a piece of filter paper. The FeCl3 is thought to diffuse into the treated segment of artery and cause de-endothelialization of the affected vessel surface. […] The effect of a test compound on the incidence of occlusive thrombus formation following the application of the FeCl3 is monitored by ultrasonic flowtometry and is used as the primary end point. The use of flowtometry to measure carotid artery blood flow, is a modification of the original procedure in which thermal detection of clot formation was employed. Kurz, K. D., Main, B. W., and Sandusky, G. E., Thromb.
Male Harlan Sprague Dawley rats (420-450 g) were acclimated at least 72 hours prior to use and fasted for 12 hours prior to surgery with free access to water. The animals were prepared, anesthetized with Nembutal followed by the insertion of catheters for blood pressure monitoring, drug and anesthesia delivery. The left carotid artery was isolated by making a midline cervical incision followed by blunt dissection and spreading techniques to separate a 2 cm segment of the vessel from the carotid sheath. A silk suture is inserted under the proximal and distal ends of the isolated vessel to provide clearance for the placement of a ultrasonic flow probe (Transonic) around the proximal end of the vessel. The probe is then secured with a stationary arm.
The test compound was administered as a single intravenous bolus at the doses outlined in Table 4 after placement of the flow probe and 5 minutes prior to the thrombogenic stimulus. At t=0, a 3 mm diameter piece of filter paper (Whatman #3) soaked with 10 microliters of a 35% solution of fresh FeCl3 (made up in water) was applied the segment of isolated carotid artery distal to the flow probe. Blood pressure, blood flow, heart rate, and respiration were monitored for 60 minutes.
The incidence of occlusion (defined as the attainment of zero blood flow) was recorded as the primary end point.
This allows a direct comparison of the antithrombotic efficacy of [3-[(benzylsulfonyl)amino]-2-oxo-1,2-dihydropyridyl]acetyl-L-argininal, with other antithrombotic agents which have also been evaluated in this model as described above. Table 5 lists the ED50 values for several well known anticoagulant agents in this model compared to [3-[(benzylsulfonyl)amino]-2-oxo-1,2-dihydropyridyl]acetyl-L-argininal.

The target in a further assay is T2, Human rt-PA (Activase) (Homo sapiens, UniProt P00750).
T2 construct: purchased Genentech Inc
Nature of the assay: biochemical. The following applies: 30 minute incubation; 1.0 nM enzyme; read-out: IC50 rt-PA (Table 2). How it is done: as §2, §1, §3
Recombinant Tissue Plasminogen Activator (rt-PA) Assay
rt-PA catalytic activity was determined using the substrate, Pefachrome t-PA (CH3SO2-D-hexahydrotyrosine-glycyl-L-arginine-p-nitroaniline, obtained from Pentapharm Ltd.). The substrate was made up in deionized water followed by dilution in HBSA prior to the assay in which the final concentration was 500 micromolar (about 3-times Km). Human rt-PA (Activase®) was obtained from Genentech Inc. The enzyme was reconstituted in deionized water and diluted into HBSA prior to the assay in which the final concentration was 1.0 nM.

T1 sequence (P04070 43-197): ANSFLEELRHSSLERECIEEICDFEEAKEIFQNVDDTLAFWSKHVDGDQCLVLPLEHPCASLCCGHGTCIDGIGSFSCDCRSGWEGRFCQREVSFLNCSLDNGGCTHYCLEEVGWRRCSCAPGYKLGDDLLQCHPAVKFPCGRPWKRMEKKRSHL
T1 sequence (P04070 212-461): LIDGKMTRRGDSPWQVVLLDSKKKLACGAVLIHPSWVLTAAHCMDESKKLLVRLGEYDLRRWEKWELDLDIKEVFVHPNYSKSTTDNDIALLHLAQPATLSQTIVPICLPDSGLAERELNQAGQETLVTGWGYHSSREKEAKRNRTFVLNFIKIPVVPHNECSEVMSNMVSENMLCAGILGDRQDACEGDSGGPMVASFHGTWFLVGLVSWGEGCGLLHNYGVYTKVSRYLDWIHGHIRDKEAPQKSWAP
T2 sequence (P00750 36-562): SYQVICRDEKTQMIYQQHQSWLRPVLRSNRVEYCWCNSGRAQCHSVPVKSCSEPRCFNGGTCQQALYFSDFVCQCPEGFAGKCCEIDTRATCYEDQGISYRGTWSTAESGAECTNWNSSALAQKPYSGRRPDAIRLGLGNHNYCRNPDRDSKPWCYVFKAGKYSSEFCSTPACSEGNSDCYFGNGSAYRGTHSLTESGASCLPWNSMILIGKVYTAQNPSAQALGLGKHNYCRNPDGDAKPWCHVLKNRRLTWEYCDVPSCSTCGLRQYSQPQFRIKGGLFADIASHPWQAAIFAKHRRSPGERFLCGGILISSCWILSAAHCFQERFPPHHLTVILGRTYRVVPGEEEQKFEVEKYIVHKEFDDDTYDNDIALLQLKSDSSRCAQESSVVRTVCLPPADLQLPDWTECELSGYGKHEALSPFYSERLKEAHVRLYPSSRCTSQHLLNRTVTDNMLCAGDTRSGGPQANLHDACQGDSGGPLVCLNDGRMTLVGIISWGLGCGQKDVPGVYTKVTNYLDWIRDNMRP
Chain of human plasmin (P00747 97-580): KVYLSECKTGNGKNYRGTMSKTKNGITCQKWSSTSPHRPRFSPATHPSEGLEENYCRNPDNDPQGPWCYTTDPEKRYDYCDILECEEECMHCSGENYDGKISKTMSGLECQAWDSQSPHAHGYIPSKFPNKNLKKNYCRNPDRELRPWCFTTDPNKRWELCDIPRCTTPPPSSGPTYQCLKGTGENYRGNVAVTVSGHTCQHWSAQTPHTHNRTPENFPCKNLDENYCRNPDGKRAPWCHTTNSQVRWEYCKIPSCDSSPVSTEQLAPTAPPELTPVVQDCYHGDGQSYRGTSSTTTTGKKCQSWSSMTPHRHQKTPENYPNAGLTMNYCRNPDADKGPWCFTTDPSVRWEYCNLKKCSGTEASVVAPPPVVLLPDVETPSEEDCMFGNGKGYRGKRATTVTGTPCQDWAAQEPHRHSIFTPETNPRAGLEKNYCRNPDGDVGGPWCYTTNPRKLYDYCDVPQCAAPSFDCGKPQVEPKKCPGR
Chain of human plasmin (P00747 581-810): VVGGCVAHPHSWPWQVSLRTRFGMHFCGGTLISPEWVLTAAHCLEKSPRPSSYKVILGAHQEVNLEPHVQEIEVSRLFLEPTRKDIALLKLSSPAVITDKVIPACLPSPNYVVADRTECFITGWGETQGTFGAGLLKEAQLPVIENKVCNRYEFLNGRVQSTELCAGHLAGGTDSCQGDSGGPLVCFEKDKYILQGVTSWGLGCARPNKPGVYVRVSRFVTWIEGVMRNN

With `N=C(N)NCCC[C@@H](C=O)NC(=O)Cn1cccc(NS(=O)(=O)Cc2ccccc2)c1=O` [Example 10, [3-[(benzylsulfonyl)amino]-2-oxo-1,2-dihydropyridyl]acetyl-L-argininal, trifluoroacetate salt], the pIC50 on human aPC, on human plasmin and at Human rt-PA (Activase) was below 5.60 in each case. Further, the “Incidence of Occlusion” value in assay [1] (0.3 mg/kg single intravenous bolus 5 minutes prior to FeCl3, monitored 60 minutes) is reported as 6/6; in assay [1] (1.0 mg/kg single intravenous bolus 5 minutes prior to FeCl3), 3/6; in assay [1] (3.0 mg/kg single intravenous bolus 5 minutes prior to FeCl3, p ≦ 0.05 from saline control) it was 1/6*; in assay [1] (5.0 mg/kg single intravenous bolus 5 minutes prior to FeCl3, p ≦ 0.05 from saline control), 0/6*. The ED50 in assay [1] (Rattus norvegicus, read-out: ED50 for thrombus prevention (dose that prevents complete thrombotic occlusion in 50% of animals)) turned out to be 1 mg/kg.

The term pIC50 denotes −log10 of the IC50, conventionally taken in molar units. One may read the ED50 as the dose that gives a 50% effect, or the effect in half of the subjects.
